The Kd is the free concentration of one partner at which half of the binding sites on the other are occupied at equilibrium, for simple one-to-one binding. A high value points to a looser complex.

This assay deals with hen egg-white lysozyme (Gallus gallus, UniProt P00698). The assay is described as follows: 1H–[…] HMQC NMR of caged lysozyme with cage-tethered GlcNAc. Type of assay: biochemical.

Take `CC(=O)N[C@H]1C(O)O[C@H](CO)[C@@H](O)[C@@H]1O` (stereo partly shown) [GlcNAc, N-acetylglucosamine]: binding was put at a Kd of 6 µM.

The record behind these values is article PMC12076163 (Chemical Science, 2025).
